{
  "source": "paper PMC9919591",
  "about": "“New Triazine Derivatives as Serotonin 5-HT6 Receptor Ligands” (Molecules, 2023)",
  "key": {"human 5-HT2AR": {"molecular_target": "T1, human 5-HT2AR (Homo sapiens, UniProt P28223)", "T1 construct": "expressed in transfected cells; host or cells: CHO-K1", "T1 sequence (P28223 whole entry)": "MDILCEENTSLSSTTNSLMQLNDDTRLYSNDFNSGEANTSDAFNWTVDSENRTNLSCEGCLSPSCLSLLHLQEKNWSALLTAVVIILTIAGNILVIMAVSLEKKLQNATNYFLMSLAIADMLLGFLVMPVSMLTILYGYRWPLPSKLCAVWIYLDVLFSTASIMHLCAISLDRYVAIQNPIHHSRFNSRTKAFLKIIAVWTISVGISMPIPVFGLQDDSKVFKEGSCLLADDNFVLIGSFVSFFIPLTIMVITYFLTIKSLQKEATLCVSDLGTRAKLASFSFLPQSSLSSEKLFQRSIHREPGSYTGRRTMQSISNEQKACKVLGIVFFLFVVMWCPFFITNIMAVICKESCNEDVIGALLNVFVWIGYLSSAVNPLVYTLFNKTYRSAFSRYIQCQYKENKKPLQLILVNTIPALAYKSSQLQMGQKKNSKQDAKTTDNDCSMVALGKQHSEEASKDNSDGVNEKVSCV", "assay": "Radioligand binding assay, 5-HT2AR ([3H]-ketanserin)", "details": "CHO-K1 cells stably expressing human 5-HT2AR", "method": "(§1) Affinity for serotonin 5-HT2A, 5-HT7 and dopamine D2 receptors (D2R) as protein off-targets was evaluated in the radioligand binding assays. In CHO-K1 cells, it was stably expressed human 5-HT2AR, whereas human 5-HT7R and D2R were stably expressed in HEK293 cells. […] A particularly weak affinity towards this receptor was shown through compounds of series 1 (compounds 1–7) and series 2 (compounds 8–13). […]. Radioligand binding assays were used to determine the affinity of the synthesized compounds for human serotonin 5-HT6R, 5-HT2AR, 5-HT7R and dopamine D2R, which were stably expressed in HEK293 cells or CHOk1 cells (5-HT2AR). This was done as described previously."}, "human D2R": {"molecular_target": "T2, human D2R (Homo sapiens, UniProt P14416)", "T2 construct": "expressed in transfected cells; host or cells: HEK293", "T2 sequence (P14416 whole entry)": "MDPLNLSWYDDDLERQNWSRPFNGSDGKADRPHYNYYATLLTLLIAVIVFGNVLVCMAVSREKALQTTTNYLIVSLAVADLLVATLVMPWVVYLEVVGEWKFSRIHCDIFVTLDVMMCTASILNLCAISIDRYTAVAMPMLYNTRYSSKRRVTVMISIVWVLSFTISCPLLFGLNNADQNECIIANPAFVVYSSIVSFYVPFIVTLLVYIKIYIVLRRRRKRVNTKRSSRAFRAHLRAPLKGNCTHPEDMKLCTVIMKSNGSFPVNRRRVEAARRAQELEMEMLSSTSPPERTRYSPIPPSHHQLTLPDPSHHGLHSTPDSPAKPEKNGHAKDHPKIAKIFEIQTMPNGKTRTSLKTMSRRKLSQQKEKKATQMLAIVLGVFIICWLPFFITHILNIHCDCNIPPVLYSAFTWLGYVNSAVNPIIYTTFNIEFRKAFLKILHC", "assay": "Radioligand binding assay, D2R ([3H]-raclopride)", "details": "HEK293 cells stably expressing human D2R", "method": "as §1"}, "HepG2 cells": {"test_system": "HepG2 cells", "assay": "Hepatotoxicity, MTS assay on HepG2 cells", "format": "cell-based, human", "method": "Some substances can lead to liver damage. To eliminate this risk, hepatotoxicity tests are carried out as early as the pre-clinical development phase. One of the methods commonly used to assess the adverse effect of tested compounds on cell viability is the MTT assay, and the most popular cell lines are HepG2 and HepaRG (the human hepatocellular carcinoma cells). To evaluate the toxic effect of compound 3, the MTS assay (one-step MTT assay variant) was performed on the HepG2 cells. HepG2 cells were incubated with increasing concentrations (0.78–50 µM) of compound 3 for 48 h. After that time, the MTS reagent was added and incubated for 1 h. Next the absorbance was read at 490 nm.\nThe hepatoma cell line HepG2 (ATCC® HB-8065TM) was used to assess the hepatotoxicity of the compounds according to previously described protocols. The CellTiter 96® AQueous Non-Radioactive Cell Proliferation Assay was purchased from Promega (Madison, WI, USA). Compound 3 was tested in two independent experiments in triplicate at seven concentrations (0.78, 1.56, 3.125, 6.25, 12.5, 25 and 50 µM) for […]."}, "human 5-HT7R": {"molecular_target": "T3, human 5-HT7R (Homo sapiens, UniProt P34969)", "T3 construct": "expressed in transfected cells; host or cells: HEK293", "T3 sequence (P34969 whole entry)": "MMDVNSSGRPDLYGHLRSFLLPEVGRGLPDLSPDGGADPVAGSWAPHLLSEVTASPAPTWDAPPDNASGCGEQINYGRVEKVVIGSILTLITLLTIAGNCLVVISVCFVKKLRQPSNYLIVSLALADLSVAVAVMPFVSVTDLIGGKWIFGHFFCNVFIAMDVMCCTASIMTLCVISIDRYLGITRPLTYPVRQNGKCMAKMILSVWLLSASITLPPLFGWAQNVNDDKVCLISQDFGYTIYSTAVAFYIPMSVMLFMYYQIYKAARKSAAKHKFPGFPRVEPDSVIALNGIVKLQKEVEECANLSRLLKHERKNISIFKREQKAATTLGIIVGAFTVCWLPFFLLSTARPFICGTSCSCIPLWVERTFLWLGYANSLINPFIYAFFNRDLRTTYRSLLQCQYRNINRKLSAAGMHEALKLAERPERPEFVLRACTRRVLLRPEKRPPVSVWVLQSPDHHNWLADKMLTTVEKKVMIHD", "assay": "Radioligand binding assay, 5-HT7R ([3H]-5-CT)", "method": "as §1"}, "human 5-HT6R": {"molecular_target": "T4, human 5-HT6R (Homo sapiens, UniProt P50406)", "T4 construct": "expressed in transfected cells; host or cells: HEK293", "T4 sequence (P50406 whole entry)": "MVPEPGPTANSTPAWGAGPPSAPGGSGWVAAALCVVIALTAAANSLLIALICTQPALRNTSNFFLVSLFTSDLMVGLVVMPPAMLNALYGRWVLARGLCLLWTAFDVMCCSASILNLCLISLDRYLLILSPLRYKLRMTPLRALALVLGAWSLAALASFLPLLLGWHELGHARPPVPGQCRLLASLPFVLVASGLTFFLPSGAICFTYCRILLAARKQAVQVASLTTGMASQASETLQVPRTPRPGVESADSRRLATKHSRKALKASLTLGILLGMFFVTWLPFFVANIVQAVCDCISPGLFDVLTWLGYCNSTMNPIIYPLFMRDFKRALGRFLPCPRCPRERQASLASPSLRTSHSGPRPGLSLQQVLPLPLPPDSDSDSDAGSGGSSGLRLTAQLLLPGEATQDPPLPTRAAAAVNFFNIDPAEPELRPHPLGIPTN", "assay": "Radioligand binding assay, 5-HT6R ([3H]-LSD)", "details": "[3H]-LSD; HEK293 cells stably expressing human 5-HT6R; average of at least two independent experiments", "method": "The affinity of compounds (1–25) for 5-HT6R was evaluated in the radioligand binding assay in HEK293 cells stably expressing human 5-HT6R. [^3H]-LSD as a radioligand was used. […] All results are collected in Table 1, Table 2 and Table 3.\nRadioligand binding assays were used to determine the affinity of the synthesized compounds for human serotonin 5-HT6R, 5-HT2AR, 5-HT7R and dopamine D2R, which were stably expressed in HEK293 cells or CHOk1 cells (5-HT2AR). This was done as described previously."}, "[1]": {"assay": "PAMPA assay (BBB penetration, passive transport)", "format": "in vitro ADME", "details": "study a", "from_the_text": "This test is a very popular method for assessing BBB penetration via passive transport."}},
  "data": [
    {"smiles": "CN1CCN(c2nc(N)nc(COc3ccccc3C(C)(C)C)n2)CC1", "note": "[Compound 3, 4-((2-(tert-Butyl)phenoxy)metyl)-6-(4-methylpiperazin-1-yl)-1,3,5-triazin-2-amine]", "values": [
      {"measurement": "Ki", "setting": "human 5-HT2AR", "result": 2.18, "unit": "µM"},
      {"measurement": "Ki", "setting": "human D2R", "result": 1.62, "unit": "µM"},
      {"measurement": "hepatotoxicity (conclusion in words)", "setting": "HepG2 cells; HepG2, MTS assay", "result": "moderate hepatotoxicity"},
      {"measurement": "IC50", "setting": "HepG2 cells; Homo sapiens, HepG2, MTS assay, 0.78–50 µM, 48 h incubation (72 h elsewhere in the source), read-out: IC50 (HepG2 cells' viability)", "result": 46.6, "unit": "µM"},
      {"measurement": "Ki", "setting": "human 5-HT7R; HEK293 cells stably expressing human 5-HT7R", "result": 6.34, "unit": "µM"},
      {"measurement": "Ki", "setting": "human 5-HT7R; compound 3 and its salts", "result": 6.34, "unit": "µM"},
      {"measurement": "melting point", "result": "107 to 109", "unit": "°C"},
      {"measurement": "Ki", "setting": "human 5-HT6R", "result": 0.013, "unit": "µM"},
      {"measurement": "Pe ± SD", "setting": "[1]", "result": 4.7, "unit": "×10⁻⁶ cm/s"},
      {"measurement": "Papp", "setting": "[1]; read-out: Pe ± SD", "result": "4.7 ± 0.2", "unit": "×10⁻⁶ cm/s"}
    ]}
  ]
}
